In patent US20250179078A1, “INHIBITORS OF NLRP3” (PTC THERAPEUTICS, INC., priority 2022, published 2025) one finds IC50 data, which are given here for 13 molecules.

This experiment addresses T1, NLRP3 (Homo sapiens, UniProt Q96P20).
T1 construct: host or cells: THP-1 cells differentiated with PMA
The experiment in a line: IL-1β Secretion Assay (NLRP3-dependent IL1β secretion in THP1 cells). In kind it is cell-based. The following applies: PMA-differentiated THP-1 cells; compounds incubated 20 h; 2.5 μM Nigericin 3 h; HTRF IL-1β readout; read-out: IC50 IL-1β Inhibition. As for the experimental part:
Monocytic THP-1 cells (ATCC: TIB-202) were maintained in growth media consisting of RPMI 1640 medium (ThermoFisher, Cat #11875-085), 10% FBS (ThermoFisher) and 0.05 mM β-mercaptoethanol (ThermoFisher, Cat #21985-023), according to the provider's instructions. The cell concentration was adjusted to 7.5×10^5 cells/mL, and plated in complete growth media with a final concentration of 100 ng/mL phorbol 12-myristate 13-acetate (PMA, Sigma #P8139). Cells were seeded at 100 µL/well into a 96-well cell culture plate (ThermoFisher Cat #165305) and allowed to differentiate for 24 h in a cell culture incubator at 37° C. with 5% CO2. Cells were washed 1× with 100 ul PBS and replaced with fresh RPMI+5% FBS. Compounds were serial diluted in DMSO with 3 fold dilution for a total of 7 concentrations. Diluted compounds were added to the cells at a ratio of 1:200 and incubated for 20 h. The NLRP3 inflammasome was activated with the addition of 2.5 μM Nigericin (Sigma: Cat #SML1779-1 ml), for 3 h. After incubation, 15 μL of conditioned media was removed and assayed for levels of IL-1β using the HTRF IL-1β assay kit (Cisbio: Cat #62HIL1BPEH) as per the manufacturer's instructions.
Compounds, once produced and prepared according to the present invention, can be assessed in variety of assays to characterize their activities. For example, NLRP3-dependent IL1β secretion was evaluated in THP1 cells. IC50 values of IL1β inhibition were calculated from the plot of percentage of inhibition versus the inhibitor concentration by a logistics fit. TABLE I depict examples of compounds according to generic Formula I. Data which is <1 nM is listed as *****; data 1-10 nM is listed as ****; data 10-100 nM is listed as ***, data 100-300 nM is listed as **, data ≥300 nM is listed as *.

T1 sequence (Q96P20 whole entry): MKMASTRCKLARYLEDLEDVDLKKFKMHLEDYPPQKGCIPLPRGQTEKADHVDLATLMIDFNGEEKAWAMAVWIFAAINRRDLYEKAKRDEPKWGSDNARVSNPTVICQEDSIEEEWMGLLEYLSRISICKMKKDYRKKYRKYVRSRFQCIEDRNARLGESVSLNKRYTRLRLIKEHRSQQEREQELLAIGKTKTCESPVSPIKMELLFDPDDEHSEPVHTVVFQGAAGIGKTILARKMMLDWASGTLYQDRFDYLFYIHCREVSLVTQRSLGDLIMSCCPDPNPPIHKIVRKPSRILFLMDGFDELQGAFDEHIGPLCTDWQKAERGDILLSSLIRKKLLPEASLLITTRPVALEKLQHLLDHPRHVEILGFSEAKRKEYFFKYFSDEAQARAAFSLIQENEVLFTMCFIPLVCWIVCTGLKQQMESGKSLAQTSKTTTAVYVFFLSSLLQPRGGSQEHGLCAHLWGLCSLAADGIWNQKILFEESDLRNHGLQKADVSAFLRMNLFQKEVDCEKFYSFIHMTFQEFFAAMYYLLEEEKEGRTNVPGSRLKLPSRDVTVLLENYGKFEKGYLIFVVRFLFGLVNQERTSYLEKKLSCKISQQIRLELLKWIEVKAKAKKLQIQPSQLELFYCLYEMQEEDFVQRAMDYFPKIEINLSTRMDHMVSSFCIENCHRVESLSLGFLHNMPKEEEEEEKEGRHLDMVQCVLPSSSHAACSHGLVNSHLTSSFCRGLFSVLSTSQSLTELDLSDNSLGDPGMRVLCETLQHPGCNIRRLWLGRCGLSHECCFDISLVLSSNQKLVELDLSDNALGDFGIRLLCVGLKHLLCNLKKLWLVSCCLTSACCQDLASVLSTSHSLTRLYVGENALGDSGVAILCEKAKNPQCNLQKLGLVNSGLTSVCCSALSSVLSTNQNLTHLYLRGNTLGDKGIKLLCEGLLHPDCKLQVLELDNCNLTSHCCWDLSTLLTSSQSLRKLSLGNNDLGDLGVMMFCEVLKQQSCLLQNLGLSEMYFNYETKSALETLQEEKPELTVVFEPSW

As to `O[C@@H]1CCCC[C@H]1Nc1nnc(-c2ccc(C(F)(F)F)cc2C(F)(F)F)c2ccnn12` [Compound 394, (1R,2R)-2-({4-[2,4-bis(trifluoromethyl)phenyl]pyrazolo[1,5-d][1,2,4]triazin-7-yl}amino)cyclohexan-1-ol], the IC50 was in the range of 1 to 10 nM.

Take `Cc1cc2c(-c3ccc(C(F)(F)F)cc3C(F)(F)F)nnc(N[C@@H]3CCCC[C@H]3O)n2c1` [Compound 160, (1R,2R)-2-({1-[2,4-bis(trifluoromethyl)phenyl]-7-methylpyrrolo[1,2-d][1,2,4]triazin-4-yl}amino)cyclohexan-1-ol]: the IC50 fell in the range of 1 to 10 nM.

With `COc1ccc(-c2nnc(NC3CC(C(C)(C)O)C3)n3cncc23)c(OC(F)(F)F)c1` (stereo not shown) [Compound 338, 2-[3-({1-[4-methoxy-2-(trifluoromethoxy)phenyl]imidazo[1,5-d][1,2,4]triazin-4-yl}amino)cyclobutyl]propan-2-ol], the IC50 was in the range of 100 to 300 nM.

For `COc1ccc(-c2nnc(N[C@@H]3CCCC[C@H]3O)n3cncc23)c(C2CC2)c1` [Compound 321, (1R,2R)-2-{[1-(2-cyclopropyl-4-methoxyphenyl)imidazo[1,5-d][1,2,4]triazin-4-yl]amino}cyclohexan-1-ol], the IC50 was 10 to 100 nM.

Regarding `COc1ccc(-c2nnc(N[C@@H]3CCCN(C)C3)n3cccc23)c(Br)c1` [Compound 47, 1-(2-bromo-4-methoxyphenyl)-N-[(3R)-1-methylpiperidin-3-yl]pyrrolo[1,2-d][1,2,4]triazin-4-amine], the IC50 is 10 to 100 nM.

In the case of `O[C@H]1CCC[C@@H](Nc2nnc(-c3ccc(C4CC4)cc3CC(F)(F)F)c3cncn23)C1` [Compound 353, (1S,3R)-3-({1-[4-cyclopropyl-2-(2,2,2-trifluoroethyl)phenyl]imidazo[1,5-d][1,2,4]triazin-4-yl}amino)cyclohexan-1-ol], the IC50 lay in the range of 1 to 10 nM.

On to `COc1ccc(-c2nnc(N[C@@H]3CCCN(C)C3)n3cncc23)c(OCC(F)(F)F)c1` [Compound 304, 1-[4-methoxy-2-(2,2,2-trifluoroethoxy)phenyl]-N-[(3R)-1-methylpiperidin-3-yl]imidazo[1,5-d][1,2,4]triazin-4-amine], for which the IC50 was in the range of 1 to 10 nM.

As to `COc1ccc(-c2nnc(NC3CCCN(C)C3=O)n3cncc23)c(CC(F)(F)F)c1` (stereo not shown) [Compound 330, 3-({1-[4-methoxy-2-(2,2,2-trifluoroethyl)phenyl]imidazo[1,5-d][1,2,4]triazin-4-yl}amino)-1-methylpiperidin-2-one], the IC50 was 10 to 100 nM.

For the molecule `CC(Nc1nnc(-c2ccc(C(F)(F)F)cc2CC(F)(F)F)c2cncn12)c1cccc(O)c1` (stereo not shown) [Compound 266], the IC50 was under 1 nM.

With `O[C@H]1CCC[C@@H](Nc2nnc(-c3ccc(C(F)(F)F)cc3CC(F)(F)F)c3cncn23)C1` [Compound 262, (1S,3R)-3-({1-[2-(2,2,2-trifluoroethyl)-4-(trifluoromethyl)phenyl]imidazo[1,5-d][1,2,4]triazin-4-yl}amino)cyclohexan-1-ol], the IC50 was under 1 nM.

In the case of `CC1(CO)CC(Nc2nnc(-c3ccc(C(F)(F)F)cc3OC(F)(F)F)c3cncn23)C1` (stereo not shown) [Compound 335, [1-methyl-3-({1-[2-(trifluoromethoxy)-4-(trifluoromethyl)phenyl]imidazo[1,5-d][1,2,4]triazin-4-yl}amino)cyclobutyl]methanol], the IC50 is 10 to 100 nM.

For the molecule `CCN1CCC[C@@H](Nc2nnc(-c3ccc(C(F)(F)F)cc3CC(F)(F)F)c3cncn23)C1` [Compound 261, N-[(3R)-1-ethylpiperidin-3-yl]-1-[2-(2,2,2-trifluoroethyl)-4-(trifluoromethyl)phenyl]imidazo[1,5-d][1,2,4]triazin-4-amine], the IC50 is under 1 nM.

Regarding `Cc1ccc(-c2nnc(N[C@@H]3CCCN(C)C3)n3cccc23)c(OC(F)(F)F)c1` [Compound 36, N-[(3R)-1-methylpiperidin-3-yl]-1-[4-methyl-2-(trifluoromethoxy)phenyl]pyrrolo[1,2-d][1,2,4]triazin-4-amine], the IC50 lay in the range of 1 to 10 nM.
